Experimental data from ChEMBL document CHEMBL1129835, “Selective cytotoxicity of certain 9-substituted ellipticines for leukemia cells in a variety of leukemia cell cultures” (1997).

Experiments:
Format in all cases: functional
Details in all cases: Homo sapiens
CAKI-1 = experiment: The compound was evaluated for cytotoxicity against CAKI-1 renal cancer cell line
PC-3 = experiment: The compound was evaluated for cytotoxicity against PC-3 prostate cancer cell line
LOX IMVI = experiment: The compound was evaluated for cytotoxicity against LOX-IMVI melanoma cell line
HCT-116 = experiment: The compound was evaluated for cytotoxicity against HCT116 colon cancer cell line
U-251 = experiment: The compound was evaluated for cytotoxicity against U251 CNS cancer cell line
MOLT-4 = experiment: The compound was evaluated for cytotoxicity against MOLT-4 leukemia cell line
NCI-H322M = experiment: The compound was evaluated for cytotoxicity against NCI-H322M non-small cell lung cancer cell line
MDA-N = experiment: The compound was evaluated for cytotoxicity against MDA-N breast cancer cell line
IGROV-1 = experiment: The compound was evaluated for cytotoxicity against IGROV1 ovarian cancer cell line

CCN(CC)CCNCc1ccc2[nH]c3c(C)c4ccncc4c(C)c3c2c1
GI50 (CAKI-1): 160 nM | GI50 (PC-3): 210 nM | GI50 (LOX IMVI): 120 nM | GI50 (HCT-116): 50 nM | GI50 (U-251): 180 nM | GI50 (MOLT-4): 10 nM | GI50 (NCI-H322M): 60 nM | GI50 (MDA-N): 110 nM | GI50 (IGROV-1): 40 nM
